Experiments:
[1] = molecular target: T1, Rhinovirus 3C protease (RVP) serotype 2 (Human rhinovirus 2, UniProt P04936); assay: Inhibition of Rhinovirus Protease, serotype 2 (FRET assay); assay type: biochemical; conditions: enzyme start experiments, read-out: kobs/I
T1 construct: Recombinant Rhinovirus 3C proteases from serotypes 14, 16, 2 or 89 were prepared; made in house
Description: Stock solutions (50 mM, in DMSO) of various compounds were prepared; dilutions were in the same solvent. Recombinant Rhinovirus 3C proteases from serotypes 14, 16, 2 or 89 were prepared by the following standard chromatographic procedures: (1) ion exchange using Q Sepharose Fast Flow from Pharmacia; (2) affinity chromatography using Affi-Gel Blue from Biorad; and (3) sizing using Sephadex G-100 from Pharmacia. Assays contained 2% DMSO, 50 mM tris pH 7.6, 1 mM EDTA, a compound at the indicated concentrations, approximately 1 μM substrate, and 50-100 nM protease. For Ki determinations, the compound and the enzyme were preincubated for 10 minutes at 30° C. prior to addition of the substrate (substrate start). The kobs/I values were obtained from reactions initiated by addition of enzyme rather than substrate. RVP activity is measured in the fluorescence resonance energy transfer assay. The substrate was (N-terminal) DABCYL-(Gly-Arg-Ala-Val-Phe-Gln-Gly-Pro-Val-Gly)-EDANS. In the uncleaved peptide, the EDANS fluorescence was quenched by the proximal DABCYL moiety. When the peptide was cleaved, the quenching was relieved, and activity was measured as an increase in fluorescence signal.
In the above table, all data is for RVP serotype-14 unless otherwise noted in parentheses. All strains of human rhinovirus (HRV) were purchased from American Type Culture Collection (ATCC), except for serotype 14, which was produced from the infectious cDNA clone constructed and supplied to us by Dr. Roland Rueckert at the Institute for Molecular Virology, University of Wisconsin, Madison, Wis. The column designated INHIB represents the percent inhibition, with the concentration of the compound in μM indicated in parentheses, unless Ki was assigned as designated by (Ki), at 10 minute preincubation with 50 nM RVP prior to addition of substrate was used. The data in the column designated kobs/I was measured from progress curves in enzyme start experiments.

ENT-70 = assay: Enterovirus-70 MRC5 Cell Culture Assay; assay type: cell-based, Enterovirus strain 70
Description: (§1) The Echovirus strain 11 (ECHO-11) and Enterovirus strain 70 (ENT-70) were purchased from American Type Culture Collection (ATCC). Virus stocks were propagated and antiviral assays were performed in MRC5 cells (ATCC). Cells were grown in Minimal Essential Medium with 10% fetal bovine serum.
(§2) The ability of compounds to protect cells against ECHO-11 or ENT-70 infection was measured by the XTT dye reduction method. Briefly, MRC5 cells were infected with ECHO-11 or ENT-70 at a multiplicity of infection (m.o.i.) of 0.0013 (ECHO-11) and 0.0017 (ENT-70) or mock-infected with medium only. Infected or uninfected cells were resuspended at 2×10^4 cells per mL and incubated with appropriate concentrations of drug. One day later, XTT/PMS was added to test plates, and the amount of formazan produced was quantified spectrophotometrically at 450/650 nm. The EC50 was calculated as the concentration of drug that increased the percentage of formazan production in drug-treated, virus-infected cells to 50% of that produced by drug-free, uninfected cells. The 50% cytotoxic dose (CC50) was calculated as the concentration of drug that decreased the percentage of formazan produced in drug-treated, uninfected cells to 50% of that produced in drug-free, uninfected cells. The therapeutic index (TI) was calculated by dividing the CC50 by the EC50.

[2] = molecular target: T2, Rhinovirus 3C protease (RVP) serotype-14 (Human rhinovirus 14, UniProt P03303); assay: Inhibition of Rhinovirus Protease, serotype 14 (FRET assay); assay type: biochemical; conditions: read-out: kobs/I
T2 construct: Recombinant Rhinovirus 3C proteases from serotypes 14, 16, 2 or 89 were prepared; made in house
T2 sequence (P03303 1538-1719): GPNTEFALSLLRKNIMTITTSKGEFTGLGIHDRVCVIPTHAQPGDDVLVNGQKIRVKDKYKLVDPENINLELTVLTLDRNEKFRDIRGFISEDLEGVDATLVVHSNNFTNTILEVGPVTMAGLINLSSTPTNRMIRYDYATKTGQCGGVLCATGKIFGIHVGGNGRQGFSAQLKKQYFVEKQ
Summary of the method: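 Recombinant HRV 3C protease (50–100 nM) in 50 mM tris pH 7.6, 1 mM EDTA, 2% DMSO, with ~1 μM DABCYL-GRAVFQGPVG-EDANS FRET substrate; cleavage read as fluorescence increase. Ki: compound and enzyme preincubated 10 min at 30° C before substrate start; kobs/I from enzyme-start progress curves. Values are percent inhibition at stated μM, or Ki.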

MRC5 cells = assay: in vitro; assay type: cell-based
Description: as §1, §2

in vitro = assay type: cell-based; conditions: human, mrc5 cells
Description: as §1, §2

ECHO-11 = assay: Echovirus-11 MRC5 Cell Culture Assay; assay type: cell-based, Echovirus strain 11
Description: as §1, §2

T1 sequence (P04936 1508-1690): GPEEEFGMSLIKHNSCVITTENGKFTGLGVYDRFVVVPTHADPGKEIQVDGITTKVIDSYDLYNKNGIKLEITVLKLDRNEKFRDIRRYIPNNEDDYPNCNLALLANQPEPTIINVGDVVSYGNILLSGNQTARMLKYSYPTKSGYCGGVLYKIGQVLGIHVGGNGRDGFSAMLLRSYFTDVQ

## CCOC(=O)/C=C/[C@H](CCC(N)=O)NC(=O)[C@H](Cc1ccccc1)N(C)C(=O)[C@H](CC(C)C)NC(=O)OCc1ccccc1 [Compound 2, Ethyl-3-(CBZ-L-Leu-L-N-Me-Phe-L-Gln)-E-Propenoate]
[1]
  kinact/KI: 617 M⁻¹ s⁻¹
ENT-70; CC50/EC50, ENT-70, 1440 min
  TI: 93
ENT-70; Enterovirus, 24 h, ENT-70 infection of MRC5 cells, XTT, one day
  EC50: 0.6 µM
[2]
  kinact/KI: 5300 M⁻¹ s⁻¹
MRC5 cells
  CC50: 56 µM
In vitro
  CC50 at 24 h: 56 µM
ECHO-11; CC50/EC50, ECHO-11, 1440 min
  TI: 18
ECHO-11; Echovirus, 24 h, ECHO-11 infection of MRC5 cells, XTT, one day
  EC50: 3.1 µM

From US5962487A, “Antipicornaviral compounds and methods for their use and preparation” (Agouron Pharmaceuticals, Inc., priority 1997, dated 1999)
